The record followed here is US8883766B2, “Ion channel modulators and methods of use” (Vertex Pharmaceuticals Incorporated, priority 2007, dated 2014).

Bounds are passed on as bounds.

T1 sequence (Q9NY46 whole entry): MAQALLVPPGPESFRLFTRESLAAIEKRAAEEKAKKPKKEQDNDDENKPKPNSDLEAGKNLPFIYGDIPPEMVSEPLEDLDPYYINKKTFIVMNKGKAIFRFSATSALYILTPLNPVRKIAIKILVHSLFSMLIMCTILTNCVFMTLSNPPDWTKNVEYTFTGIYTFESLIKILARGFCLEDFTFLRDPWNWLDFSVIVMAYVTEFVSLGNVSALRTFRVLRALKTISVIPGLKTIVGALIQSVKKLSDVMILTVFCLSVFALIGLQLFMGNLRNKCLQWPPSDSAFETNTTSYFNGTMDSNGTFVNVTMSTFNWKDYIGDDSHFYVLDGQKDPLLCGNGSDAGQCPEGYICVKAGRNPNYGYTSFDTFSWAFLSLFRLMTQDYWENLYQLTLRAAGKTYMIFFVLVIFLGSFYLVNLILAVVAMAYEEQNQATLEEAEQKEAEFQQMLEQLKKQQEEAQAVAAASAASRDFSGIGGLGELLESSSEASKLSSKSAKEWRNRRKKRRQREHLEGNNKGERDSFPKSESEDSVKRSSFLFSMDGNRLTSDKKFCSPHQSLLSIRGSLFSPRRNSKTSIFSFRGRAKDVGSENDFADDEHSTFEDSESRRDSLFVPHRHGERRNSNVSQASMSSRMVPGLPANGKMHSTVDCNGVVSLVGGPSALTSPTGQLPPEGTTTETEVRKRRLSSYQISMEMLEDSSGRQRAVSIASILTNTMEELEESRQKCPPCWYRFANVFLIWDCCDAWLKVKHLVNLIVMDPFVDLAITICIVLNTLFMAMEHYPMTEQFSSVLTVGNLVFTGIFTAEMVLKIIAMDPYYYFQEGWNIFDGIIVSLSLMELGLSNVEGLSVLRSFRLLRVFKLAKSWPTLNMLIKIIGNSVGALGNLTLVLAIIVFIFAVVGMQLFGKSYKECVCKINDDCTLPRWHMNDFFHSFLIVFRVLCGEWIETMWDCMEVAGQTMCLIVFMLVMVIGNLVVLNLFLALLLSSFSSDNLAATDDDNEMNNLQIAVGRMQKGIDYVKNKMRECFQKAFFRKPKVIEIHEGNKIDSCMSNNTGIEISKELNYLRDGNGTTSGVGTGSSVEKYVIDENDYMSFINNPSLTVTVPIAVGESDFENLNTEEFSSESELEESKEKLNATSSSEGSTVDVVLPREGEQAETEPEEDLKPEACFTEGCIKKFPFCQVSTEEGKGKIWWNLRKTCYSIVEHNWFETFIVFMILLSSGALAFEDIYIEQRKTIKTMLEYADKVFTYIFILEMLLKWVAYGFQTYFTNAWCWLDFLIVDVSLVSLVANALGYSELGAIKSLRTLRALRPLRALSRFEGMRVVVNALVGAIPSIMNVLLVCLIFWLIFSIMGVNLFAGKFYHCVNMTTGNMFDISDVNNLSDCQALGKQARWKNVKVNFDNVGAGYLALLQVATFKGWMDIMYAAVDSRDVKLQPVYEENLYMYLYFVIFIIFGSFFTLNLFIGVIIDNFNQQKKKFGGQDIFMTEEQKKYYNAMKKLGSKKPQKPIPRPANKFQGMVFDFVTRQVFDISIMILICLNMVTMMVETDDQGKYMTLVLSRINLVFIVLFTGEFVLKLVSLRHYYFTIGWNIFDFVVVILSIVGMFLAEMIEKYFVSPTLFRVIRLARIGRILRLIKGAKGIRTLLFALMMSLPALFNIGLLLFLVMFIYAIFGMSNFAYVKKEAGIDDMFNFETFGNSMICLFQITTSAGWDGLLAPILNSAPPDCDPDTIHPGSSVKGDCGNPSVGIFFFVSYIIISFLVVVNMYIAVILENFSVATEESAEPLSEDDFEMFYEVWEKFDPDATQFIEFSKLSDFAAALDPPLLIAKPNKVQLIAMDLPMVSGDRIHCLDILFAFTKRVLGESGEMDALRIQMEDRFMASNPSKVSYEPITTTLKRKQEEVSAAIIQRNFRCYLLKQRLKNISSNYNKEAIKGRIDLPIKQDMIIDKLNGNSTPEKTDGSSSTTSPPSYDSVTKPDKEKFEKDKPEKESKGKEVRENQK

This assay concerns the target T1, NaV1.3 (Homo sapiens, UniProt Q9NY46).
T1 construct: expressed in transfected cells
Briefly: VIPR optical membrane potential assay with electrical stimulation, HEK293 cells stably expressing NaV1.3. In kind it is cell-based. The conditions noted are these: compound activity for the NaV1.3 receptors. As to the method: Compounds of the invention are useful as antagonists of voltage-gated sodium ion channels. Antagonist properties of test compounds were assessed as follows. Cells expressing the NaV of interest were placed into microtiter plates. After an incubation period, the cells were stained with fluorescent dyes sensitive to the transmembrane potential. The test compounds were added to the microtiter plate. The cells were stimulated with either chemical or electrical means to evoke a NaV dependent membrane potential change from unblocked channels, which was detected and measured with trans-membrane potential-sensitive dyes. Antagonists were detected as a decreased membrane potential response to the stimulus. The optical membrane potential assay utilized voltage-sensitive FRET sensors described by Gonzalez and Tsien (See, Gonzalez, J. E. and R. Y. Tsien (1995) “Voltage sensing by fluorescence resonance energy transfer in single cells” Biophys J 69(4): 1272-80, and Gonzalez, J. E. and R. Y. Tsien (1997) “Improved indicators of cell membrane potential that use fluorescence resonance energy transfer” Chem Biol 4(4): 269-77) in combination with instrumentation for measuring fluorescence changes such as the Voltage/Ion Probe Reader (VIPR®) (See, Gonzalez, J. E., K. Oades, et al. (1999) “Cell-based assays and instrumentation for screening ion-channel targets” Drug Discov Today 4(9): 431-439).
The following is an example of how NaV1.3 inhibition activity is measured using the optical membrane potential method #2. Other subtypes are performed in an analogous mode in a cell line expressing the NaV of interest.
HEK293 cells stably expressing NaV1.3 are plated into 96-well microtiter plates. After an appropriate incubation period, the cells are stained with the voltage sensitive dyes CC2-DMPE/DiSBAC2(3) as follows.
2×CC2-DMPE=20 μM CC2-DMPE: 10 mM CC2-DMPE is vortexed with an equivalent volume of 10% pluronic, followed by vortexing in required amount of HBSS containing 10 mM HEPES. Each cell plate will require 5 mL of 2×CC2-DMPE. 50 μL of 2×CC2-DMPE is added to wells containing washed cells, resulting in a 10 μM final staining concentration. The cells are stained for 30 minutes in the dark at RT.
2×DISBAC2(3) with ABSC1=6 μM DISBAC2(3) and 1 mM ABSC1: The required amount of 10 mM DISBAC2(3) is added to a 50 ml conical tube and mixed with 1 μL 10% pluronic for each mL of solution to be made and vortexed together. Then HBSS/HEPES is added to make up 2× solution. Finally, the ABSC1 is added.
The 2×DiSBAC2(3) solution can be used to solvate compound plates. Note that compound plates are made at 2× drug concentration. Wash stained plate again, leaving residual volume of 50 μL. Add 50 μL/well of the 2×DiSBAC2(3) w/ ABSC1. Stain for 30 minutes in the dark at RT.
The electrical stimulation instrument and methods of use are described in ION Channel Assay Methods PCT/US01/21652, herein incorporated by reference. The instrument comprises a microtiter plate handler, an optical system for exciting the coumarin dye while simultaneously recording the coumarin and oxonol emissions, a waveform generator, a current- or voltage-controlled amplifier, and a device for inserting electrodes in well. Under integrated computer control, this instrument passes user-programmed electrical stimulus protocols to cells within the wells of the microtiter plate.
Use the current-controlled amplifier to deliver stimulation wave pulses for 3 s. Two seconds of pre-stimulus recording are performed to obtain the un-stimulated intensities. Five seconds of post-stimulation recording are performed to examine the relaxation to the resting state.
Data are analyzed and reported as normalized ratios of background-subtracted emission intensities measured in the 460 nm and 580 nm channels. Background intensities are then subtracted from each assay channel. […]
A word on the IC50: it is the midpoint of a concentration-inhibition curve. Regarding `COC(=O)NS(=O)(=O)c1ccc(NC(=O)C(C)Oc2cccc(Cl)c2Cl)cc1` (stereo in doubt) [Compound 58, (R)-methyl 4-(2,3-dichlorophenoxy)propanamido) phenylsulfonylcarbamate], the half-inhibitory concentration (IC50) was above 5 µM.
In the case of `COC(=O)NS(=O)(=O)c1ccc(NC(=O)CCn2ccc3cccc(Cl)c32)cc1` [Compound 1], the IC50 is above 5 µM.
Consider `COC(=O)NS(=O)(=O)c1ccc(NC(=O)NC2Cc3ccccc3C2)cc1` [Compound 2], for which the half-inhibitory concentration (IC50) was above 5 µM.
For the molecule `COC(=O)NS(=O)(=O)c1ccc(NC(=O)COc2ccc(F)c(Cl)c2)cc1` [Compound 3], the IC50 was above 5 µM.
With `NC(=O)NS(=O)(=O)c1ccc(NC(=O)CCn2ccc3cc(Cl)ccc32)cc1` [Compound 4], the IC50 was above 5 µM.
As for `COC(=O)NS(=O)(=O)c1ccc(NC(=O)[C@H](CC(C)C)N2CCCc3cc(Cl)ccc32)cc1` [Compound 5], the IC50 was above 5 µM.
The value for `COC(=O)NS(=O)(=O)c1ccc(NC(=O)[C@@H](C)N2CCCc3cc(Cl)ccc32)cc1` [Compound 6, (R)-methyl 4-(2-(6-chloro-3,4-dihydroquinolin-1(2H)-yl)propanamido)phenylsulfonylcarbamate] was below 2 µM; that for `COC(=O)NS(=O)(=O)c1ccc(NC(=O)Cn2ccc3ccc(OC)cc32)cc1` [Compound 7] was above 5 µM; that for `COC(=O)NS(=O)(=O)c1ccc(NC(=O)Cn2ccc3cc(F)c(F)cc32)cc1` [Compound 8] was above 5 µM.
For `COC(=O)NS(=O)(=O)c1ccc(NC(=O)c2ccccc2)cc1` [Compound 9], the concentration for half-maximal inhibition (IC50) is above 5 µM.
For `COC(=O)NS(=O)(=O)c1ccc(NC(=O)[C@@H](C(C)C)N2CCCc3cc(Cl)ccc32)cc1` [Compound 10], the IC50 was 2 to 5 µM.
With `C[C@H](C(=O)Nc1ccc(S(=O)(=O)NC(=O)C2CCCC2)cc1)n1ccc2c(F)cccc21` [Compound 11, (R)—N-(4-(2-(4-fluoro-1H indol-1-yl)propanamido)phenylsulfonyl)cyclopentanecarboxamide], the IC50 is above 5 µM.
With `COC(=O)NS(=O)(=O)c1ccc(NC(=O)Cn2cc(C)c3ccccc32)cc1` [Compound 12], the IC50 was above 5 µM.
As for `C[C@H](C(=O)Nc1ccc(S(=O)(=O)NC(=O)CC(C)(C)C)cc1)n1ccc2c(F)cccc21` [Compound 13], the half-inhibitory concentration (IC50) is above 5 µM.
Take `COC(=O)NS(=O)(=O)c1ccc(NC(=O)Cn2ccc3cc(C)ccc32)cc1` [Compound 14]: the IC50 was above 5 µM.
For the molecule `COC(=O)NS(=O)(=O)c1ccc(NC(=O)c2cc3c(F)cccc3[nH]2)cc1` [Compound 15], the half-inhibitory concentration (IC50) was above 5 µM.
Regarding `COC(=O)NS(=O)(=O)c1ccc(NC(=O)[C@@H](C)n2ccc3ccc(Cl)cc32)cc1` [Compound 16], the IC50 was in the range of 2 to 5 µM.
Take `COC(=O)NS(=O)(=O)c1ccc(NC(=O)[C@H](C)n2ccc3c(F)cccc32)cc1` [Compound 17]: the half-inhibitory concentration (IC50) was above 5 µM.
The value for `COC(=O)NS(=O)(=O)c1ccc(NC(=O)c2cc3c(F)cc(F)cc3[nH]2)cc1` [Compound 18] was above 5 µM; that for `COC(=O)NS(=O)(=O)c1ccc(NC(=O)Cn2cc(C#N)c3ccccc32)cc1` [Compound 19] was above 5 µM; that for `COC(=O)NS(=O)(=O)c1ccc(NC(=O)C(C)n2ccc3cc(Cl)ccc32)cc1` (stereo not shown) [Compound 20] was 2 to 5 µM.
For `C[C@H](C(=O)Nc1ccc(S(=O)(=O)NC(=O)C2CC2)cc1)n1ccc2c(F)cccc21` [Compound 21], the concentration for half-maximal inhibition (IC50) is above 5 µM.
Take `COC(=O)NS(=O)(=O)c1ccc(NC(=O)[C@@H](C)N2CCCc3cc(Cl)c(C)cc32)cc1` [Compound 22]: the half-inhibitory concentration (IC50) was below 2 µM.
The figure for `COC(=O)NS(=O)(=O)c1ccc(NC(=O)[C@@H](CC(C)C)n2ccc3c(F)cccc32)cc1` [Compound 23, (R)-methyl 4-(2-(4-fluoro-1H-indol-1-yl)-4-methylpentanamido) phenylsulfonylcarbamate] is below 2 µM.
Consider `COC(=O)NS(=O)(=O)c1ccc(NC(=O)[C@H](C(C)C)N2CCCc3cc(Cl)ccc32)cc1` [Compound 24], for which the concentration for half-maximal inhibition (IC50) is above 5 µM.
As for `COC(=O)NS(=O)(=O)c1ccc(NC(=O)[C@H](C)n2ccc3ccc(C(F)(F)F)cc32)cc1` [Compound 25], the concentration for half-maximal inhibition (IC50) is above 5 µM.
With `COC(=O)NS(=O)(=O)c1ccc(NC(=O)Cn2ccc3cc(Cl)ccc32)cc1` [Compound 26], the IC50 was above 5 µM.
`COC(=O)NS(=O)(=O)c1ccc(NC(=O)Cn2ccc3cc(F)ccc32)cc1` [Compound 27]: the IC50 was above 5 µM.
Consider `COC(=O)NS(=O)(=O)c1ccc(NC(=O)Cn2ccc3cccc(Cl)c32)cc1` [Compound 28], for which the IC50 is above 5 µM.
Regarding `C[C@H](C(=O)Nc1ccc(S(=O)(=O)NC(=O)Oc2ccc(F)cc2)cc1)n1ccc2c(F)cccc21` [Compound 29], the IC50 was above 5 µM.
As to `COC(=O)NS(=O)(=O)c1ccc(NC(=O)NCc2ccc(Cl)c(Cl)c2)cc1` [Compound 30, methyl 4-(3(3,4-dichlorobenzyl)ureido)phenylsulfonylcarbamate], the 50% inhibitory concentration (IC50) was above 5 µM.
For the molecule `CNC(=O)NS(=O)(=O)c1ccc(NC(=O)[C@@H](C)n2ccc3c(F)cccc32)cc1` [Compound 31, (R)-2-(4-fluoro-1H indol-1-yl)-N-(4-(N-(methylcarbamoyl)sulfamoyl)phenyl)propanamide], the IC50 is above 5 µM.
For `COC(=O)NS(=O)(=O)c1ccc(C2CCN(C(=O)Cn3ccc4ccc(Cl)cc43)CC2)cc1` [Compound 32], the 50% inhibitory concentration (IC50) was above 5 µM.
As for `COC(=O)NS(=O)(=O)c1ccc(NC(=O)Cn2c(C)cc3cc(Cl)ccc32)cc1` [Compound 33], the IC50 is above 5 µM.
The value for `COC(=O)NS(=O)(=O)c1ccc(NC(=O)[C@@H](C)n2ccc3c(F)cccc32)cc1` [Compound 34] was below 2 µM.
Take `COC(=O)NS(=O)(=O)c1ccc(NC(=O)C(C)Oc2ccc(Cl)cc2C)cc1` (stereo not shown) [Compound 35]: the half-maximal inhibitory concentration (IC50) is above 5 µM.
Consider `COC(=O)NS(=O)(=O)c1ccc(NC(=O)[C@@H](C)n2ccc3cccc(F)c32)cc1` [Compound 36], for which the IC50 is above 5 µM.
On to `COC(=O)NS(=O)(=O)c1ccc(NC(=O)CCCOc2ccc(Cl)cc2Cl)cc1` [Compound 37], for which the IC50 was above 5 µM.
Turning to `COC(=O)NS(=O)(=O)c1ccc(NC(=O)C2(c3ccc4c(c3)OCO4)CC2)cc1` [Compound 38], the half-maximal inhibitory concentration (IC50) is above 5 µM.
In the case of `COC(=O)NS(=O)(=O)c1ccc(NC(=O)Cn2ccc3ccc(C(F)(F)F)cc32)cc1` [Compound 39], the IC50 is above 5 µM.
As for `COC(=O)NS(=O)(=O)c1ccc(NC(=O)[C@@H](C)n2ccc3ccccc32)cc1` [Compound 40], the IC50 was in the range of 2 to 5 µM.
In the case of `CCOC(=O)NS(=O)(=O)c1ccc(N2CCN(C(=O)[C@@H](C)N3CCCc4cc(F)ccc43)CC2)cc1` [Compound 41, (R)-ethyl 4-(4-(2-(6-fluoro-3,4-dihydroquinolin-1(2H)-yl)propanoyl)piperazin-1-yl)phenylsulfonylcarbamate], the IC50 is above 5 µM.
As to `C[C@H](C(=O)Nc1ccc(S(=O)(=O)NC(=O)C2CCC2)cc1)n1ccc2c(F)cccc21` [Compound 42], the concentration for half-maximal inhibition (IC50) is above 5 µM.
